Data: patent US9452980B2, “Substituted benzamides” (Hoffmann-La Roche Inc., priority 2009, dated 2016)
Counter-ions that a name gives are not always drawn. Like-named read-outs stand apart in the source and are kept apart here.

Columns and labels:
[1] = molecular target: mouse TAAR1 (Mus musculus (Mouse), UniProt Q923Y8); experiment: Radioligand binding assay on mouse TAAR1; details: read-out: Ki (μM) mouse
How it was run: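 Membranes were from HEK293 cells stably expressing mouse TAAR1. Compounds from 10 pM to 10 μM, in duplicate, competed with [3H]-(S)-4-[(ethyl-phenyl-amino)-methyl]-4,5-dihydro-oxazol-2-ylamine for 1 h at 4 °C. Nonspecific binding was defined with 10 μM unlabelled ligand, and bound radioactivity was read by filtration and scintillation.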

[2] = molecular target: rat TAAR1 (Rattus norvegicus (Rat), UniProt Q923Y9); experiment: Radioligand binding assay on rat TAAR1; details: read-out: Ki (μM) rat
rat TAAR1, sequence (Q923Y9 whole entry): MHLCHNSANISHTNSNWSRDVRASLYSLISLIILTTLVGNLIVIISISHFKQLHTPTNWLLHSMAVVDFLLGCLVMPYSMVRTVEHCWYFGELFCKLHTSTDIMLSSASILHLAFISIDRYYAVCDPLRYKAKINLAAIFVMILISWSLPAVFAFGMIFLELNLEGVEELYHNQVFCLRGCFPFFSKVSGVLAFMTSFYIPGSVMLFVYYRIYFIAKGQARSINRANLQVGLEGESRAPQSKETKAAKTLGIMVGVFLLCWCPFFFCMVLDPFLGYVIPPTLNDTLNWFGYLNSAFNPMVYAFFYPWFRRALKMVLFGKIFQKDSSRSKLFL
How it was run: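 Membranes from HEK293 cells stably expressing rat TAAR1, with Kd checked per batch by saturation. Competition with ³H-(S)-4-[(ethyl-phenyl-amino)-methyl]-4,5-dihydro-oxazol-2-ylamine, compounds 10 pM–10 μM in duplicate, 1 hr at 4 °C. Filtration then scintillation counting; nonspecific binding defined with 10 μM unlabeled ligand.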

[3] = mouse TAAR1, HEK-293 membranes, first value of cell mouse/rat
[4] = rat TAAR1, HEK-293 membranes, second value of cell mouse/rat

mouse TAAR1, sequence (Q923Y8 whole entry): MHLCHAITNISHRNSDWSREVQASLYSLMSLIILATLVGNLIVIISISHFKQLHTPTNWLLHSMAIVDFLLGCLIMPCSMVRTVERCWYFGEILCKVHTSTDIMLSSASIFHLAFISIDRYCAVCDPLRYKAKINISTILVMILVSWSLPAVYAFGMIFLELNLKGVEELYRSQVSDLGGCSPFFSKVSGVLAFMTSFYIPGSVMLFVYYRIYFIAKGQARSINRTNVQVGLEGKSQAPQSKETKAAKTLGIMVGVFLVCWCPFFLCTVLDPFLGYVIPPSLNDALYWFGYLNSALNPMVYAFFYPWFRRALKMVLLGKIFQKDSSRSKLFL

Ki [1, 3]	Ki [2, 4]	Structure (SMILES)	Ki [1]	Ki [2]
0.0227 µM	0.0124 µM	O=C(Nc1ccc(C2CCNC2)cc1)Nc1cccc2cccnc12 (racemic) [Example 81, (RS)-1-(4-Pyrrolidin-3-yl-phenyl)-3-quinolin-8-yl-urea]	–	–
0.018 µM	0.0044 µM	CCc1ccc(C(=O)Nc2ccc([C@@H]3CCCNC3)cc2)cn1 [Example 297, (S)-6-Ethyl-N-(4-(piperidin-3-yl)phenyl)nicotinamide]	–	–
0.0255 µM	1.48 µM	O=C(Nc1ccc(C2CCNC2)cc1)c1ncc(F)cc1F (racemic) [Example 75, (RS)-3,5-Difluoro-pyridine-2-carboxylic acid (4-pyrrolidin-3-yl-phenyl)-amide hydrochloride]	–	–
0.211 µM	0.0018 µM	O=C(Nc1ccc([C@@H]2CCCNC2)cc1)c1ccc(Cl)cc1 [Example 112, 4-Chloro-N—((S)-4-piperidin-3-yl-phenyl)-benzamide]	–	–
0.0507 µM	0.0131 µM	O=C(Nc1ccc(C2CCCNC2)cc1)c1ccc(F)cn1 (racemic) [Example 180, (RS)-5-Fluoro-N-(4-(piperidin-3-yl)phenyl)picolinamide hydrochloride]	–	–
0.0385 µM	0.322 µM	COc1ccc(C(=O)Nc2ccc(C3CCNC3)cc2)c(OC)n1 (racemic) [Example 95, (RS)-2,6-Dimethoxy-N-(4-pyrrolidin-3-yl-phenyl)-nicotinamide]	–	–
0.0573 µM	0.0121 µM	O=C(Nc1ccc(C2CCNC2)cc1)c1cnc(Cl)cn1 (racemic) [Example 163, (RS)-5-Chloro-N-(4-(pyrrolidin-3-yl)phenyl)pyrazine-2-carboxamide hydrochloride]	–	–
2.83 µM	0.0457 µM	COC(C(=O)Nc1ccc(C2CCNC2)cc1)c1ccc(Cl)cc1 (racemic) [Example 60, (RS)-2-(4-Chloro-phenyl)-2-methoxy-N—((RS)-4-pyrrolidin-3-yl-phenyl)-acetamide]	–	–
0.0013 µM	0.0036 µM	O=C(Nc1ccc(C2CCNC2)cc1)OCCc1cc(F)ccc1F (racemic) [Example 124, (RS)-(4-Pyrrolidin-3-yl-phenyl)-carbamic acid 2-(2,5-difluoro-phenyl)-ethyl ester]	–	–
0.126 µM	0.0411 µM	N#Cc1ccc(C(=O)Nc2ccc(C3CCNC3)cc2)nc1 (racemic) [Example 165, (RS)-5-Cyano-N-(4-(pyrrolidin-3-yl)phenyl)picolinamide hydrochloride]	–	–
0.0059 µM	0.0031 µM	O=C(Nc1ccc(C2CNCCO2)cc1)c1cnc(Cl)c(Cl)c1 (racemic) [Example 219, (RS)-5,6-Dichloro-N-(4-(morpholin-2-yl)phenyl)nicotinamide hydrochloride]	–	–
0.0019 µM	0.0022 µM	O=C(Nc1ccc(C2CCNC2)cc1)OCCc1ccc(Cl)c(Cl)c1 (racemic) [Example 126, (RS)-(4-Pyrrolidin-3-yl-phenyl)-carbamic acid 2-(3,4-dichloro-phenyl)-ethyl ester]	–	–
0.0349 µM	0.0382 µM	CC(C(=O)Nc1ccc(C2CCCNC2)cc1)c1cccc(Cl)c1 (racemic) [Example 111, (RS)-2-(3-Chloro-phenyl)-N—((RS)-4-piperidin-3-yl-phenyl)-propionamide]	–	–
0.713 µM	1.77 µM	O=C(Nc1ccc(C2CCNC2)cc1)c1ncccc1F (racemic) [Example 82, (RS)-3-Fluoro-pyridine-2-carboxylic acid (4-pyrrolidin-3-yl-phenyl)-amide hydrochloride]	–	–
0.005 µM	0.0043 µM	O=C(Nc1ccc([C@H]2CCNC2)cc1)c1ccc(OCC(F)(F)F)nc1 [Example 204, (R)—N-(4-(pyrrolidin-3-yl)phenyl)-6-(2,2,2-trifluoroethoxy)nicotinamide hydrochloride]	–	–
0.0172 µM	0.0033 µM	CC(C(=O)Nc1ccc(C2CCNC2)cc1)c1cccc(C(F)(F)F)c1 (racemic) [Example 61, (RS)—N—((RS)-4-Pyrrolidin-3-yl-phenyl)-2-(3-trifluoromethyl-phenyl)-propionamide]	–	–

Second part, the molecule before the results:

Structure (SMILES)	Ki [1, 3]	Ki [2, 4]	Ki [1]	Ki [2]
C[C@H]1CNC[C@H](c2ccc(NC(=O)c3cccc(Cl)c3)cc2)O1 [Example 309, 3-Chloro-N-(4-((2S,6S)-6-methylmorpholin-2-yl)phenyl)benzamide hydrochloride]	–	0.0023 µM	0.116 µM	–
Cc1cc(C(=O)Nc2ccc(C3CNCCO3)cc2)cc(C)n1 (racemic) [Example 295, (RS)-2,6-Dimethyl-N-(4-(morpholin-2-yl)phenyl)isonicotinamide dihydrochloride]	0.235 µM	1.2 µM	–	–
Cc1nc(-c2cnccn2)sc1C(=O)Nc1ccc(C2CNCCO2)cc1 (racemic) [Example 298, (RS)-4-Methyl-N-(4-(morpholin-2-yl)phenyl)-2-(pyrazin-2-yl)thiazole-5-carboxamide hydrochloride]	–	0.0143 µM	0.0506 µM	–
O=C(Nc1ccc(C2CCCNC2)cc1)c1ccc(C(F)(F)F)cc1 (racemic) [Example 98, (RS)—N-(4-Piperidin-3-yl-phenyl)-4-trifluoromethyl-benzamide hydrochloride]	0.0041 µM	0.0114 µM	–	–
Cc1ccc(C(=O)Nc2ccc(C3CNCCO3)cc2)cc1 (racemic) [Example 189, (RS)-4-Methyl-N-(4-(morpholin-2-yl)phenyl)benzamide hydrochloride]	0.0343 µM	0.0016 µM	–	–
O=C(NCc1ccc([C@@H]2CNCCO2)cc1)c1ccc(Cl)nc1 [Example 315, (R)-6-Chloro-N-(4-(morpholin-2-yl)benzyl)nicotinamide hydrochloride]	1.35 µM	0.009 µM	–	–
O=C(Nc1ccc([C@@H]2CCCNC2)cc1)c1cnc(C(F)(F)F)cn1 [Example 248, (S)—N-(4-(Piperidin-3-yl)phenyl)-5-(trifluoromethyl)pyrazine-2-carboxamide hydrochloride]	–	0.0143 µM	0.188 µM	–
O=C(Nc1ccc([C@H]2CNCCO2)cc1)c1ccc(Cl)nc1 [Example 208, (S)-6-Chloro-N-(4-(morpholin-2-yl)phenyl)nicotinamide hydrochloride]	0.0762 µM	–	–	0.0044 µM
COc1ccc(C(=O)Nc2ccc(C3CCCNC3)cc2)cc1 (racemic) [Example 186, (RS)-4-Methoxy-N-(4-(piperidin-3-yl)phenyl)benzamide hydrochloride]	0.0486 µM	0.0027 µM	–	–
N#Cc1ccc(C(=O)Nc2ccc(C3CCNC3)cc2)cc1 (racemic) [Example 55, (RS)-4-Cyano-N-(4-pyrrolidin-3-yl-phenyl)-benzamide hydrochloride]	–	0.0745 µM	0.0048 µM	–
O=C(Nc1ccc([C@@H]2CCCNC2)cc1)c1cnc(OCC(F)(F)F)cn1 [Example 250, (S)—N-(4-(Piperidin-3-yl)phenyl)-5-(2,2,2-trifluoroethoxy)pyrazine-2-carboxamide hydrochloride]	0.288 µM	0.0056 µM	–	–
CN1CCC(c2ccc(NC(=O)c3ccc(Cl)cc3)cc2)C1 (racemic) [Example 32, (RS)-4-Chloro-N-[4-(1-methyl-pyrrolidin-3-yl)-phenyl]-benzamide]	0.0005 µM	0.0858 µM	–	–
O=C(Nc1ccc([C@H]2CCCNC2)cc1)c1ccc(Cl)cn1 [Example 167, (R)-5-Chloro-N-(4-(piperidin-3-yl)phenyl)picolinamide hydrochloride]	–	0.0048 µM	0.0271 µM	–
O=C(Nc1ccc([C@@H]2CCCNC2)cc1)c1ccc(OCC(F)(F)F)nc1 [Example 224, (S)—N-(4-(Piperidin-3-yl)phenyl)-6-(2,2,2-trifluoroethoxy)nicotinamide hydrochloride]	0.051 µM	–	–	0.0029 µM
O=C(Nc1ccc([C@@H]2CNCCO2)cc1)c1cccc(Cl)c1 [Example 262, (R)-3-Chloro-N-(4-(morpholin-2-yl)phenyl)benzamide hydrochloride]	–	–	0.0052 µM	0.0013 µM
O=C(Nc1ccc(C2CCNC2)cc1)c1ccc(-n2cccn2)nc1 (racemic) [Example 73, (RS)-6-Pyrazol-1-yl-N-(4-pyrrolidin-3-yl-phenyl)-nicotinamide hydrochloride]	0.0056 µM	0.0257 µM	–	–
O=C(Nc1ccc([C@H]2CNCCO2)cc1)c1ccc(Cl)cc1 [Example 144, 4-Chloro-N—((S)-4-morpholin-2-yl-phenyl)-benzamide hydrochloride]	–	–	0.0188 µM	0.0011 µM
CC(C(=O)Nc1ccc(C2CCNC2)cc1)c1cccc(C(=O)c2ccccc2)c1 (racemic) [Example 64, (RS)-2-(3-Benzoyl-phenyl)-N—((RS)-4-pyrrolidin-3-yl-phenyl)-propionamide]	0.124 µM	0.0215 µM	–	–
O=C(Nc1ccc(N2CCNCC2)cc1)c1ccc(Cl)cc1 [Example 59, 4-Chloro-N-(4-piperazin-1-yl-phenyl)-benzamide hydrochloride]	0.0256 µM	0.0014 µM	–	–
O=C(Nc1ccc(C2CCNC2)cc1)c1ccc(Cl)cc1Cl (racemic) [Example 19, (RS)-2,4-Dichloro-N-(4-pyrrolidin-3-yl-phenyl)-benzamide hydrochloride]	0.0035 µM	0.0189 µM	–	–
COc1ccc(C(=O)Nc2ccc(C3CNCCO3)cc2)cc1 (racemic) [Example 190, (RS)-4-Methoxy-N-(4-(morpholin-2-yl)phenyl)benzamide hydrochloride]	0.0501 µM	0.0021 µM	–	–
O=C(Nc1ccc([C@H]2CNCCO2)cc1)Nc1ccc(C(F)(F)F)cc1 [Example 312, (S)-1-(4-(Morpholin-2-yl)phenyl)-3-(4-(trifluoromethyl)phenyl)urea hydrochloride]	0.0007 µM	–	–	0.0011 µM
